US7745446B2, “Pyrazolo[1,5-c]pyrimidines” (Bayer Schering Pharma Aktiengesellschaft, priority 2004, dated 2010)
Like-named read-outs stand apart in the source and are kept apart here.

Tests used:
[1] = target: T1, GST-ΔPH-Akt1 (Homo sapiens, UniProt P31749); assay: Biochemical ΔPH Akt1 assay (flashplate, 33P incorporation into histone 2B); conditions: 100 nM ATP, histone 2B substrate; read-out: ΔPHAkt1 inhibition: IC50
T1 construct: named GST-deltaPH-Akt1; 107-480aa; cloned in the pAcGl vector; GST (N); made in house; host or cells: SF9 insect cells (baculovirus vector pAcG1), co-expressed with PDK1
Procedure, shortened: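 The enzyme was GST-fused human Akt1 lacking the PH domain (aa 107–480), co-expressed with PDK1 in Sf9 cells, at 100 ng/well, with 100 ng/well histone 2B substrate and 100 nM ATP including 33P-ATP. 33P incorporation was counted on scintillant-coated flashplates.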

[2] = target: T2, full-length Akt1 (active) (Homo sapiens, UniProt P31749); assay: Biochemical Akt1 assay (full-length Akt1 active, flashplate, Crosstide); conditions: 100 nM ATP, Crosstide substrate; read-out: Akt1 inhibition (full-length Akt1, active): IC50
T2 construct: recombinant full-length human Akt1, containing N-terminal His6 tag; His6 (N); GST (N); purchased Upstate, UK #14-276; host or cells: baculovirus infected Sf21 insect cells
Text: For the biochemical Akt1 assay recombinant full-length human Akt1, containing N-terminal His6 tag is cloned and expressed in baculovirus infected Sf21 insect cells. Akt1 is activated with GST-MAPKAP-K2 and PDK1, and repurified on Ni2+/NTA-agrose and glutathioneagarose (Upstate, UK; #14-276).
In order to study the inhibition of Akt1 (full-length version) according to the invention, a flashplate-based assay has been developed.
The full-length Akt1 assay is a biochemical assay using Akt1 N-terminally fused to GST and co-expressed with PDKI in insect cells. The Akt1 assay is run in 96 well plates by incubating 500 ng/well GST-Akt1, 1 μM Crosstide (N-terminally biotinylated synthetic peptide (KGSGSGRPRTSSFAEG) Upstate, #12-385) as substrate, 10 μl of test compound (test compounds were dissolved as 10 mM solutions in dimethylsulfoxide (DMSO) and subsequently diluted) and 100 nM ATP (including ^33P-ATP) in 100 μl of reaction buffer (50 mM HEPES, pH7,5; 3 mM MgCl2; 3 mM MnCl2; 3 μM Na-Orthovanadat; 1 mM DTT; 1 μg/ml PEG8000) for 60 minutes at 30° C. in 96 well microtiter plates. The reactions are terminated by adding 100 μl stopping buffer (5M NaCl, 35 mM EDTA pH 8.0) for 5 minutes. 190μl of the reaction mixture are transferred into streptavidin-coated Flashplates (Perkin Elmer, #SMP-103) and incubated for further 30 minutes at room temperature. The plates are washed 3 times by using washing buffer (0.9% NaCl). Relying on the incorporation of ^33P into the peptide substrate crosstide, the detection is based on the specific binding of the biotinylated peptide to the streptavidin-coated surface of scintillator-coated flash plates (NEN, USA; #SMP-103). This phosphorylation is measured by counting the plate for 60 sec. using a plate reader (Wallac Microbeta; Perkin Elmer, USA).

[3] = target: T3, full-length Akt1 (inactive) (Homo sapiens, UniProt P31749); assay: Biochemical Akt1 assay (full-length Akt1 inactive, PDK1-dependent activation, IMAP); conditions: PDK1 and PIP3 vesicles, 50 μM ATP; read-out: Inhibition of Akt1 activation (full-length Akt1, inactive): IC50
T3 construct: recombinant full-length human Akt1 a containing N-terminal His6 tag; His6 (N); purchased Upstate, UK #14-279; host or cells: baculovirus infected Sf21 insect cells
Method: The enzyme is purified using Ni2+/NTA-agarose (Upstate, UK; #14-279).
The enzyme is purified using Ni2+/NTA-agarose.
PDK1-dependent activation and subsequent enzymatic activity of Akt1: Activity of purified human Akt1 is routinely measured in an assay in which the enzyme is first activated by PDK1 in the presence of phosphatidylinositol-3,4,5-triphosphate (PIP3). Once activated, Akt1-dependent phosphorylation of a fluorescence labelled peptide substrate is measured by fluorescence polarisation using the IMAP technology (Molecular Devices).
The phospholipids are prepared as follows: 5 mg DOPC/DOPS are solved in 200 μl 10 mM Tris (pH 7.4) and 300 μg PIP3 are resuspended in 950 μl 10 mM Tris (pH 7.4) by pipetting. 950 μl solved PIP3 are mixed with 50 μl solved DOPC/DOPS and incubated for 2 h at a temperature below 20° C. Then the mixture is subjected to sonification for 30 min. at max. power until a translucent phopholipid vesicle preparation is obtained. Aliquots of the vesicle suspension are frozen at -80° C. until needed, likewise the solved DOPC/DOPS.
Assays are performed in 384-well plates. Incubations are carried out for 60 min. at room temperature. The reaction buffer mixture contained in a final volume of 25 μl: 10 mM Tris pH 7,4, 10 mM MgCl2. 1 mM DTT, and 0.1 mg/ml BSA. In contrast the activation buffer contained: 50 ng/well Akt1, 20 ng/well PDK1, 1.25 μM peptide substrat, 50 μM ATP, and phospholipid vesicles (1:20). Test compounds are added from stock solutions in DMSO before activation of Akt1 by PDK1. After the incubation the beads (IMAP binding reagent; Molecular Devices; 1:167) are added and the fluorescence polarization is measured (excitation 485 nm, emission 530 nm).

[4] = target: T4, PKA (Homo sapiens, UniProt P17612); assay: Biochemical PKA assay (flashplate); conditions: 100 nM ATP; read-out: PKA inhibition: −log IC50 (converted)
T4 construct: His; purchased PanVera, USA #R3791; host or cells: E. coli
Method: For the biochemical PKA assay the catalytic subunit of PKA is expressed in E. coli as a His-tagged human recombinant protein and purified accordingly (PanVera, USA; #R3791).
In order to study the kinase inhibition activity of the compounds according to the invention, a flashplate-based assay has been developed for the serine/threonine kinase, PKA. The assay is run in 96 well plates by incubating 1 ng/well His-PKA (PanVera, USA; #R3791), 0.5 μM/well PKA peptide (#12-394; Upstate, USA) as substrate, 10 μl of compound of invention (test compounds were dissolved as 10 mM solutions in dimethylsulfoxide (DMSO) and subsequently diluted) and 100 nM ATP (including ^33P-ATP) in 100 μl of reaction buffer ([…], pH7,5; 3 mM MgCl2; 3 mM MnCl2; 3 μM Na-Orthovanadat; 1 mM DTT) for 80 minutes at 22° C. The reactions are stopped by adding 100 μl stopping buffer (2% H3PO4 for 5 minutes) and are washed 3 times by using washing buffer (200 μl 1×PBS). Relying on the incorporation of ^33P into the peptide substrate, the detection is based on the adhesion of the phosphorylated peptide to the surface of scintillator-coated Flash plates (Perkin Elmer, USA; #SMP-103). This phosphorylation is measured by counting the plate for 60 sec. using a plate reader (Wallac Microbeta; Perkin Elmer, USA). By using this method the IC50 of the PKA inhibition is determined.

[5] = system: MCF7 cells; assay: Cellular proliferation/cytotoxicity assay (Alamar Blue), MCF7; conditions: Homo sapiens, MCF7, 48 h, read-out: Anti-proliferative/cytotoxic activity: IC50 MCF7
Method: (§1) The anti-proliferative activity of the compounds as described herein, is evaluated using MCF7 and MDA-MB-468 (ATCC HTB-22 and HTB-132) cell lines and the Alamar Blue (Resazurin) cell viability assay (O'Brien et al. Eur J Biochem 267, 5421-5426, 2000). Resazurin is reduced to the fluorescent resorufin by cellular dehydrogenase activity, correlating with viable, proliferating cells. Test compounds are dissolved as 10 mM solutions in DMSO and subsequently diluted. MCF7 or MDA-MB-434 cells were seeded into 96 well flat bottom plates at a density of 10000 cells/well (MCF7) or 5000 cells/well (MDA-MB-468) in a volume of 200 μl/well. 24 hours after seeding, 1 μl each of the compound dilutions are added into each well of the 96 well plates. Each compound dilution is tested as at least as duplicates. Wells containing untreated control cells were filled with 200 μl DMEM containing 0.5% v:v DMSO. The cells are then incubated with the substances for 48 hours at 37° C. in a humidified atmosphere containing 5% carbon dioxide. To determine cell viability, 20 μl of a Resazurin solution (Sigma; 90 mg/l) are added. After 4 hours incubation at 37° C. the fluorescence is measured at an extinction of 544 nm and an emission of 590 nm (Wallac Victor2; Perkin Elmer, USA). For the calculation of the cell viability the emission value from untreated cells is set as 100% viability and the emission rates of treated cells are set in relation to the values of untreated cells. Viabilities are expressed as % values. The corresponding IC50 values of the compounds for cytotoxic activity are determined from the concentration-effect curves by means of non-linear regression. The analysis of the data is performed using a biostatistical program (GraphPad Prism, USA).

[6] = system: MDA-MB-468 cells; assay: Cellular proliferation/cytotoxicity assay (Alamar Blue), MDA-MB-468; conditions: Homo sapiens, MDA-MB-468, 48 h, read-out: Anti-proliferative/cytotoxic activity: IC50 MDA468
[7] = system: MCF7 cells
Method: as §1

[8] = system: MDA-MB-468 cells

T1 sequence (P31749 107-480, stated change not applied): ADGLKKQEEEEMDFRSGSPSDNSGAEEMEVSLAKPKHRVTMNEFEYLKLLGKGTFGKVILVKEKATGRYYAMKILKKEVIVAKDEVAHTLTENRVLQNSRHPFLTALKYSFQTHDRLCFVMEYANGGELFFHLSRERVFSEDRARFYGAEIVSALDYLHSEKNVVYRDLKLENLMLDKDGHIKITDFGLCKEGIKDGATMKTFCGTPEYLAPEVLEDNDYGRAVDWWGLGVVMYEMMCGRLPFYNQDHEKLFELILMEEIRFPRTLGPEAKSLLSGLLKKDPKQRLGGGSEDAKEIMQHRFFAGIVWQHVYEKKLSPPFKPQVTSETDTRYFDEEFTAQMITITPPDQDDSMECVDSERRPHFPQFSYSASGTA
T2 sequence (P31749 whole entry): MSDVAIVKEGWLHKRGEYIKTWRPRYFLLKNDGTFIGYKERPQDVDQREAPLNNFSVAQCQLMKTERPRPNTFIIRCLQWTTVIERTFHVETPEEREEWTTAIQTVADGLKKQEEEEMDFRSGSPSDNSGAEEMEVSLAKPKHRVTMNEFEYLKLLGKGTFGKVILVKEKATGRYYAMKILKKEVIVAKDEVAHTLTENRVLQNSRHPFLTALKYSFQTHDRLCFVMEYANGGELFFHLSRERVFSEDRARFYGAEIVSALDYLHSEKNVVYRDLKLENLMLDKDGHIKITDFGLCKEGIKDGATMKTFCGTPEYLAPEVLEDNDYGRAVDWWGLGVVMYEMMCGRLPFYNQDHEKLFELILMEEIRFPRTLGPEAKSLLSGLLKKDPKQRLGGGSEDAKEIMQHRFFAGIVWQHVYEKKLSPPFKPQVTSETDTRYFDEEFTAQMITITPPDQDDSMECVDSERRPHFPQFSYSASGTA
T3 sequence (P31749 whole entry): as above

Molecule | IC50 [1] | IC50 [2] | IC50 [3] | IC50 [4] | IC50 [5] | IC50 [6] | IC50 [7] | IC50 [8]
Cn1cc(-c2ccc(-c3cc4ccnn4c(Nc4ccc(NC(=O)c5ccc(CN)cc5)cc4)n3)cc2)cn1 [Example 61, 4-Aminomethyl-N-(4-{5-[4-(1-methyl-1H-pyrazol-4-yl)-phenyl]-pyrazolo[1,5-c]pyrimidin-7-ylamino}-phenyl)-benzamide] | ≤ 1.75 µM | ≤ 4.03 µM | ≤ 5 µM | 6.31 to 100 µM | ≤ 16.9 µM | ≤ 13.6 µM | – | –
Aminomethyl-N-(4-{5-[6-(2-hydroxy-ethoxy)-naphthalen-2-yl]-pyrazolo[1,5-c]pyrimidin-7-ylamino}-phenyl)-benzamide [Example 50] | – | – | – | – | – | – | ≤ 16.9 µM | ≤ 13.6 µM
